ChEMBL document CHEMBL1127472, “Inhibition of topoisomerase I by anthracycline antibiotics: evidence for general inhibition of topoisomerase I by DNA-binding agents” (J Med Chem, 1994)

Assays:
[1] = system: DNA topoisomerase 1 (Bos taurus); assay: Ratio of DNA relaxation times by topoisomerase in presence of 9 uM of compound (t1/e(+drug) / t 1/e(-drug))
[2] = system: DNA topoisomerase 1 (Bos taurus); assay: Ratio of DNA relaxation times by topoisomerase in presence of 2 uM of compound (t1/e(+drug) / t 1/e(-drug))
[3] = system: DNA topoisomerase 1 (Bos taurus); assay: Ratio of DNA relaxation times by topoisomerase in presence of 20 uM of compound (t1/e(+drug) / t 1/e(-drug)); Initial complete inhibition
[4] = system: DNA topoisomerase 1 (Bos taurus); assay: Ratio of DNA relaxation times by topoisomerase in presence of 20 uM of compound (t1/e(+drug) / t 1/e(-drug)); Complete inhibition
DNA [5] = assay: Binding constant was measured for DNA binding at 20 uM concentration
[6] = system: DNA topoisomerase 1 (Bos taurus); assay: Ratio of DNA relaxation times by topoisomerase in presence of 18 uM of compound (t1/e(+drug) / t 1/e(-drug))
[7] = system: DNA topoisomerase 1 (Bos taurus); assay: Ratio of DNA relaxation times by topoisomerase in presence of 17 uM of compound (t1/e(+drug) / t 1/e(-drug)); Initial complete inhibition
DNA [8] = assay: Binding constant was measured for DNA binding at 17 uM concentration

Row | Compound | Ratio [2] | Ratio [4] | Ka1 (DNA [5]) | also measured
1 | COc1cccc2c1C(=O)c1c(O)c3c(c(O)c1C2=O)C[C@@](O)(C(C)=O)C[C@@H]3OC1CC(O)C(CC2CC(O)C(CC3CCC(=O)C(C)O3)CO2)C(C)O1 (stereo not given in full) | 0.92 | – | – | Ratio [1]: 1.4
2 | COc1cccc2c1C(=O)c1c(O)c3c(c(O)c1C2=O)C[C@@](O)(C(C)=O)C[C@@H]3OC1OC(C)C(CC2CC(O)C(CC3CCC(=O)C(C)O3)CO2)C(O)C1I (stereo not given in full) | 1.4 | – | – | Ratio [3]: Initial complete inhibition
3 | COc1cccc2c1C(=O)c1c(O)c3c(c(O)c1C2=O)C[C@@](O)(C(C)=O)C[C@@H]3OC1OC(C)C(O)C(O)C1I (stereo in doubt; 2) | 2 | Complete inhibition | 120 | –

More lines, main results first:

Row | Ratio [2] | Ratio [4] | Ka1 (DNA [5]) | Compound | also measured
4 | 3.5 | Complete inhibition | 400 | COc1cccc2c1C(=O)c1c(O)c3c(c(O)c1C2=O)C[C@@](O)(C(C)=O)C[C@@H]3OC1OC(c2ccccc2)C(O)C(O)C1I (stereo not given in full) | –
5 | 0.76 | – | – | COc1cccc2c1C(=O)c1c(O)c3c(c(O)c1C2=O)C[C@@](O)(C(C)=O)C[C@@H]3OC1OC(C)C(O)C(O)C1I (stereo in doubt; form 1) | Ratio [6]: 1
6 | 1.5 | – | – | COc1cccc2c1C(=O)c1c(O)c3c(c(O)c1C2=O)C[C@@](O)(C(C)=O)C[C@@H]3OC1OC(C)C(O)C(O)C1I (stereo in doubt; form 2) | Ratio [7]: Complete inhibition; Ka1 (DNA [8]): 5
